Reference: patent publication US12404239B2, “Modulators of BCL6 as ligand directed degraders” (Celgene Corporation, priority 2022, dated 2025)

Biological target: T1, BCL6 (Homo sapiens, UniProt P41182)
T1 construct: HiBiT-tag knocked into endogenous BCL6 locus using CRISPR; endogenous in cells; host or cells: DHL-4_BCL6_HiBiT cells (CRISPR knock-in)
Test: BCL6_HiBiT degradation assay (2 h)
Assay type: cell-based
Conditions: DHL-4_BCL6_HiBiT cells, read-out: YCon (% remaining maximal effect)
How it was run: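 DHL-4 cells carrying CRISPR HiBiT knock-in at endogenous BCL6, treated 2 h at 37 °C with 10-point 3-fold dilutions from 1-10 μM. BCL6 level read by Nano-Glo HiBiT lytic luminescence normalized to DMSO; four-parameter fit gives degradation EC50 and Yconstant (% remaining at maximal effect).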

SMILES | Percent BCL6 remaining at maximal degradation (Ycon)
C[C@H]1C[C@H](Nc2ccc3c(C4CCC(=O)NC4=O)nn(C)c3c2)CCN1c1ncc(Cl)c(Nc2ccc3c(c2)CC(=O)N3C)n1 (stereo partly drawn) [Example 81, 3-(6-(((2S,4R)-1-(5-chloro-4-((1-methyl-2-oxoindolin-5-yl)amino)pyrimidin-2-yl)-2-methylpiperidin-4-yl)amino)-1-methyl-1H-indazol-3-yl)piperidine-2,6-dione] | < 20%
C[C@@H]1CN(c2ncc(Cl)c(Nc3cc4c(cc3F)N(C)C(=O)C4)n2)CC[C@H]1Nc1ccc2c(C3CCC(=O)NC3=O)nn(C)c2c1 (stereo partly drawn) [Example 92, 3-(6-(((3R,4R)-1-(5-chloro-4-((6-fluoro-1-methyl-2-oxoindolin-5-yl)amino)pyrimidin-2-yl)-3-methylpiperidin-4-yl)amino)-1-methyl-1H-indazol-3-yl)piperidine-2,6-dione] | < 20%
C[C@@H]1CN(c2ncc(Cl)c(Nc3cc(F)c4c(c3)CC(=O)N4C)n2)CC[C@H]1Nc1ccc2c(C3CCC(=O)NC3=O)nn(C)c2c1 (stereo partly drawn) [Example 95, 3-(6-(((3R,4R)-1-(5-chloro-4-((7-fluoro-1-methyl-2-oxoindolin-5-yl)amino)pyrimidin-2-yl)-3-methylpiperidin-4-yl)amino)-1-methyl-1H-indazol-3-yl)piperidine-2,6-dione] | < 20%
C[C@@H]1CN(c2ncc(Cl)c(Nc3ccc4c(c3F)CC(=O)N4C)n2)CC[C@H]1Nc1ccc2c(C3CCC(=O)NC3=O)nn(C)c2c1 (stereo partly drawn) [Example 98, 3-(6-(((3R,4R)-1-(5-chloro-4-((4-fluoro-1-methyl-2-oxoindolin-5-yl)amino)pyrimidin-2-yl)-3-methylpiperidin-4-yl)amino)-1-methyl-1H-indazol-3-yl)piperidine-2,6-dione] | < 20%
C[C@@H]1CN(c2ncc(Cl)c(Nc3ccc4c(c3)CC(=O)N4CCN3CCOCC3)n2)CC[C@H]1Nc1ccc2c(C3CCC(=O)NC3=O)nn(C)c2c1 (stereo partly drawn) [Example 101, 3-(6-(((3R,4R)-1-(5-chloro-4-((1-(2-morpholinoethyl)-2-oxoindolin-5-yl)amino)pyrimidin-2-yl)-3-methylpiperidin-4-yl)amino)-1-methyl-1H-indazol-3-yl)piperidine-2,6-dione] | < 20%
C[C@@H]1CN(c2ncc(Cl)c(Nc3ccc4c(c3)CC(=O)N4CC(C)(F)F)n2)CC[C@H]1Nc1ccc2c(C3CCC(=O)NC3=O)nn(C)c2c1 (stereo partly drawn) [Example 110, 3-(6-(((3R,4R)-1-(5-chloro-4-((1-(2,2-difluoropropyl)-2-oxoindolin-5-yl)amino)pyrimidin-2-yl)-3-methylpiperidin-4-yl)amino)-1-methyl-1H-indazol-3-yl)piperidine-2,6-dione] | < 20%
C[C@@H]1CN(c2ncc(C#N)c(Nc3ccc4c(c3)CC(=O)N4C)n2)CC[C@H]1Nc1ccc2c(C3CCC(=O)NC3=O)nn(C)c2c1 (stereo partly drawn) [Example 113, 2-((3R,4R)-4-((3-(2,6-dioxopiperidin-3-yl)-1-methyl-1H-indazol-6-yl)amino)-3-methylpiperidin-1-yl)-4-((1-methyl-2-oxoindolin-5-yl)amino)pyrimidine-5-carbonitrile] | < 20%
C[C@@H]1CN(c2ncc(C#N)c(Nc3cc4c(cc3F)N(C)C(=O)C4)n2)CC[C@H]1Nc1ccc2c(C3CCC(=O)NC3=O)nn(C)c2c1 (stereo partly drawn) [Example 117, 2-((3R,4R)-4-((3-(2,6-dioxopiperidin-3-yl)-1-methyl-1H-indazol-6-yl)amino)-3-methylpiperidin-1-yl)-4-((6-fluoro-1-methyl-2-oxoindolin-5-yl)amino)pyrimidine-5-carbonitrile] | < 20%
C[C@@H]1CN(c2ncc(Cl)c(Nc3ccc4c(c3)CC(=O)N4CCCC(F)(F)F)n2)CC[C@H]1Nc1ccc2c(C3CCC(=O)NC3=O)nn(C)c2c1 (stereo partly drawn) [Example 119, 3-(6-(((3R,4R)-1-(5-chloro-4-((2-oxo-1-(4,4,4-trifluorobutyl)indolin-5-yl)amino)pyrimidin-2-yl)-3-methylpiperidin-4-yl)amino)-1-methyl-1H-indazol-3-yl)piperidine-2,6-dione] | < 20%

Other lines, results leading:

Percent BCL6 remaining at maximal degradation (Ycon) | SMILES
> 60% | C[C@H]1C[C@H](N(C)c2ccc3c(C4CCC(=O)NC4=O)nn(C)c3c2)CCN1c1ncc(Cl)c(Nc2ccc3c(c2)CC(=O)N3C)n1 (stereo partly drawn) [Example 84, 3-(6-(((2S,4R)-1-(5-chloro-4-((1-methyl-2-oxoindolin-5-yl)amino)pyrimidin-2-yl)-2-methylpiperidin-4-yl)(methyl)amino)-1-methyl-1H-indazol-3-yl)piperidine-2,6-dione]
< 20% | C[C@@H]1CN(c2ncc(Cl)c(Nc3ccc4c(c3)CC(=O)N4C)n2)CC[C@H]1Nc1ccc2c(C3(C)CCC(=O)NC3=O)nn(C)c2c1 (stereo partly drawn) [Example 85, 3-(6-(((3R,4R)-1-(5-chloro-4-((1-methyl-2-oxoindolin-5-yl)amino)pyrimidin-2-yl)-3-methylpiperidin-4-yl)amino)-1-methyl-1H-indazol-3-yl)-3-methylpiperidine-2,6-dione]
< 20% | C[C@@H]1CN(c2ncc(Cl)c(Nc3ccc4c(c3)CC(=O)N4C)n2)CC[C@H]1Nc1cc2c(cn1)c(C1CCC(=O)NC1=O)nn2C (stereo partly drawn) [Example 86, 3-(6-(((3R,4R)-1-(5-chloro-4-((1-methyl-2-oxoindolin-5-yl)amino)pyrimidin-2-yl)-3-methylpiperidin-4-yl)amino)-1-methyl-1H-pyrazolo[4,3-c]pyridin-3-yl)piperidine-2,6-dione]
> 60% | CCN1C(=O)Cc2cc(Nc3nc(N4CCC(Nc5ccc6c(C7CCC(=O)NC7=O)nn(C)c6c5)CC4)ncc3Cl)ccc21 (stereo not drawn) [Example 89, 3-(6-((1-(5-chloro-4-((1-ethyl-2-oxoindolin-5-yl)amino)pyrimidin-2-yl)piperidin-4-yl)amino)-1-methyl-1H-indazol-3-yl)piperidine-2,6-dione]
< 20% | CNCCN1C(=O)Cc2cc(Nc3nc(N4CC[C@@H](Nc5ccc6c(C7CCC(=O)NC7=O)nn(C)c6c5)[C@H](C)C4)ncc3Cl)ccc21 (stereo partly drawn) [Example 104, 3-(6-(((3R,4R)-1-(5-chloro-4-((1-(2-(methylamino)ethyl)-2-oxoindolin-5-yl)amino)pyrimidin-2-yl)-3-methylpiperidin-4-yl)amino)-1-methyl-1H-indazol-3-yl)piperidine-2,6-dione]
< 20% | C[C@@H]1CN(c2ncc(Cl)c(Nc3ccc4c(c3)CC(=O)N4CCC(C)(C)F)n2)CC[C@H]1Nc1ccc2c(C3CCC(=O)NC3=O)nn(C)c2c1 (stereo partly drawn) [Example 107, 3-(6-(((3R,4R)-1-(5-chloro-4-((1-(3-fluoro-3-methylbutyl)-2-oxoindolin-5-yl)amino)pyrimidin-2-yl)-3-methylpiperidin-4-yl)amino)-1-methyl-1H-indazol-3-yl)piperidine-2,6-dione]
< 20% | C[C@@H]1CN(c2ncc(Cl)c(Nc3ccc4c(c3)CC(=O)N4)n2)CC[C@H]1Nc1ccc2c(C3CCC(=O)NC3=O)nn(C)c2c1 (stereo partly drawn) [Example 114, 3-(6-(((3R,4R)-1-(5-chloro-4-((2-oxoindolin-5-yl)amino)pyrimidin-2-yl)-3-methylpiperidin-4-yl)amino)-1-methyl-1H-indazol-3-yl)piperidine-2,6-dione]
< 20% | CC(C)N1C(=O)Cc2cc(Nc3nc(N4CC[C@@H](Nc5ccc6c(C7CCC(=O)NC7=O)nn(C)c6c5)[C@H](C)C4)ncc3Cl)ccc21 (stereo partly drawn) [Example 115, 3-(6-(((3R,4R)-1-(5-chloro-4-((1-isopropyl-2-oxoindolin-5-yl)amino)pyrimidin-2-yl)-3-methylpiperidin-4-yl)amino)-1-methyl-1H-indazol-3-yl)piperidine-2,6-dione]
< 20% | C[C@@H]1CN(c2ncc(C#N)c(Nc3cc(F)c4c(c3)CC(=O)N4C)n2)CC[C@H]1Nc1ccc2c(C3CCC(=O)NC3=O)nn(C)c2c1 (stereo partly drawn) [Example 116, 2-((3R,4R)-4-((3-(2,6-dioxopiperidin-3-yl)-1-methyl-1H-indazol-6-yl)amino)-3-methylpiperidin-1-yl)-4-((7-fluoro-1-methyl-2-oxoindolin-5-yl)amino)pyrimidine-5-carbonitrile]
< 20% | C[C@@H]1CN(c2ncc(C#N)c(Nc3ccc4c(c3F)CC(=O)N4C)n2)CC[C@H]1Nc1ccc2c(C3CCC(=O)NC3=O)nn(C)c2c1 (stereo partly drawn) [Example 118, 2-((3R,4R)-4-((3-(2,6-dioxopiperidin-3-yl)-1-methyl-1H-indazol-6-yl)amino)-3-methylpiperidin-1-yl)-4-((4-fluoro-1-methyl-2-oxoindolin-5-yl)amino)pyrimidine-5-carbonitrile]
< 20% | C[C@@H]1CN(c2ncc(Cl)c(Nc3ccc4c(c3)N(CCC(C)(C)O)C(=O)C4)n2)CC[C@H]1Nc1ccc2c(C3CCC(=O)NC3=O)nn(C)c2c1 (stereo partly drawn) [Example 120, 3-(6-(((3R,4R)-1-(5-chloro-4-((1-(3-hydroxy-3-methylbutyl)-2-oxoindolin-6-yl)amino)pyrimidin-2-yl)-3-methylpiperidin-4-yl)amino)-1-methyl-1H-indazol-3-yl)piperidine-2,6-dione]
< 20% | C[C@@H]1CN(c2ncc(Cl)c(Nc3ccc4c(c3)CC(=O)N4CC(C)(C)F)n2)CC[C@H]1Nc1ccc2c(C3CCC(=O)NC3=O)nn(C)c2c1 (stereo partly drawn) [Example 121, 3-(6-(((3R,4R)-1-(5-chloro-4-((1-(2-fluoro-2-methylpropyl)-2-oxoindolin-5-yl)amino)pyrimidin-2-yl)-3-methylpiperidin-4-yl)amino)-1-methyl-1H-indazol-3-yl)piperidine-2,6-dione]
